Results taken from ChEMBL document CHEMBL3853308, “Condensation of Macrocyclic Polyketides Produced by Penicillium sp. DRF2 with Mercaptopyruvate Represents a New Fungal Detoxification Pathway” (J Nat Prod, 2016).

Experiments:
[1] = Cytotoxicity against human MCF10A cells at 7.8 to 1000 uM after 24 hrs by XTT assay; assay type: toxicity, cell-based; settings: mcf-10a
[2] = Cytotoxicity against human HeLa cells after 24 hrs by XTT assay; assay type: functional, cell-based
[3] = Cytotoxicity against human MCF7 cells after 24 hrs by XTT assay; settings: MCF7, 24 h
[4] = Cytotoxicity against human A549 cells after 24 hrs by XTT assay; assay type: functional, cell-based; settings: A549, 24 h

Row | Structure (SMILES) | Activity [1] | IC50 [2] | IC50 [3] | IC50 [4]
1 | C[C@H]1CCC(=O)/C=C/C(=O)c2c(O)cc(O)cc2CC(=O)O1 | Non-Toxic |  |  | 
2 | COC(=O)[C@@]1(O)CS[C@H]2CCC[C@H](C)OC(=O)Cc3cc(O)cc(O)c3C(=O)[C@@H]21 | Non-Toxic |  |  | 
3 | C[C@H]1CCC[C@@H]2SC[C@](O)(C(=O)O)[C@H]2C(=O)c2c(O)cc(O)cc2CC(=O)O1 | Non-Toxic |  |  | 
4 | C[C@H]1CCC[C@H]2O[C@H]2C(=O)c2c(O)cc(O)cc2CC(=O)O1 | Non-Toxic |  |  | 
5 | COc1cccc2c1C(=O)c1c(O)c3c(c(O)c1C2=O)C[C@@](O)(C(=O)CO)C[C@@H]3O[C@H]1C[C@H](N)[C@H](O)[C@H](C)O1 [DOXORUBICIN] |  | 140 nM | 120 nM | 190 nM
